From patent US11834663B2, “Fibrotic treatment” (Monash University, priority 2015, dated 2023)
Marks after values point to notes of the source that are not given here.

System: cardiac cytokine protein levels
Assay: Cardiac cytokine protein levels by Bio-Plex multiplex assay in aged WT mice
Type: in vivo, mouse
Experimental: There are 8 different sets of in vivo experiments in this study: • A) Phenotypic characterisation of the heart and blood vessels in global IRAP knockout mice and their WT controls treated for 4 weeks with Angiotensin (Ang) II (800 ng/kg/min; s.c.) where mouse hearts and blood vessels were compared to tissue obtained from young WT and IRAP^−/− mice treated with saline. • B) Prevention of Ang II-induced changes in the cardiovascular system following IRAP inhibitor treatment. In the prevention model, WT mice were treated with Ang II (800 ng/kg/min; s.c.)±the IRAP inhibitor (HFI-419; 500 ng/kg/min for 28 days) or HFI-vehicle (1 DMSO:3 HBC). • C) Phenotypic characterisation of the aged heart, kidney and blood vessels in the global IRAP knockout mice where aged WT and IRAP^−/− mouse hearts, kidneys and blood vessels were compared to tissue obtained from young WT and IRAP^−/− mice. • D) Reversal of the age-induced changes in the cardiovascular system following IRAP inhibitor treatment. In the reversal model, aged WT mice were treated with either saline, IRAP inhibitor (HFI-419 at 500 ng/kg/min; compound 1 at 500 ng/kg/min; compound 2 at 50 ng/kg/min) or HFI-vehicle (1 DMSO: 3 HBC) for 4 weeks. • E) Prevention of ischemic-reperfusion injury in isolated hearts taken from aged global IRAP knockout mice and aged IRAP inhibitor (HFI-419 at 500 ng/kg/min; s.c.) treated WT mice compared to age-matched vehicle-treated (1 DMSO:3 HBC; s.c.) WT controls. • F) Phenotypic characterization of cardiac function using echocardiography in the aged global IRAP knockout mice compared to aged and young WT mice. • G) Phenotypic characterization of liver steatosis in IRAP knockout mice in a high fat diet (HFD) model. • H) Reversal of the salt-induced fibrosis in the liver following IRAP inhibitor treatment.
The levels of cytokines in the heart ventricles and apex were detected by using the Bio-Plex multiplex assay (Bio-rad). Tissues were snap-frozen and homogenized with a Bio-Plex cell lysis kit (Biorad) according to the manufacturer's instructions. Briefly, tissues were washed once with 300 μl of wash buffer and homogenized in lysing solutions using Tissue Lyser (Qiagen). Samples were left on ice for 30 min and centrifuged at 6,000×g for 20 min at 4° C. Supernatant was collected and protein content was determined using Biorad protein assay (Biorad). 500 μg/ml of protein were used to detect the levels of cytokines. A panel of Bio-Plex Pro™ Mouse Cytokine Standard 23-Plex, Group I (IL-1α, IL-1β, IL-2, IL-3, IL-4, IL-5, IL-6, IL-9, IL-10, IL-12(p40), IL-12(p70), IL-13, IL-17A, Eotaxin, G-CSF, GM-CSF, IFN-γ, KC, MCP-1, MIP-1α, MIP-1β, RANTES, TNFα) was used, containing 23 different antibodies covalently coupled to the beads. 50 μl of sample (500 μg/ml) or known standard (200-900 μg/ml) was added to wells of a 96-well plate which was pre-coated with the diluted coupled beads specific for each antibody and incubated at RT with shaking at 300 RPM for 30 min in the dark. After washing away any unbound substances, biotinylated detection antibodies were added to create a sandwich complex and the plate was incubated for 30 min with shaking at 300 RPM in the dark at RT. Following three washes, the final detection complex was formed with the addition of streptavidin-phycoerythrin conjugate and incubated for 10 min in the dark at RT with shaking at 300 RPM. Following 3 washes with […], beads were resuspended in 125 μl of assay buffer. The samples were read using Bio-Plex MAGPIX Multiplex Reader (Bio-Plex Suspension System). Data were calculated by the Bio-Plex Manager software.

[1] = hearts of HFI-419-treated aged WT mice, mean ± s.e.m
[2] = relative ratio to mean of vehicle-treated aged WT

CCOC(=O)C1=C(NC(C)=O)Oc2cc(O)ccc2C1c1cccnc1 (centres unmarked) [HFI-419]
pro-inflammatory cytokines in heart (aged WT mice, HFI-419 4 weeks vs vehicle, FIG. 14, Table 1): did not increase | anti-inflammatory cytokines in heart, including IL-4, IL-9 and IL-12p40 (aged WT mice, HFI-419 4 weeks vs vehicle, Table 1): marked increases | CCL-3 (MIP-1a) cardiac protein level [1]: 2.493 ± 0.35 pg/mL | CCL-4 (MIP-1b) cardiac protein level [1]: 92.74 ± 10.92 pg/mL | CCL-5 (RANTES) cardiac protein level [1]: 2.839 ± 0.21 pg/mL | CCL-11 (Eotaxin) cardiac protein level [1]: 140.3 ± 8.18 pg/mL | CXCL-1 (KC) cardiac protein level [1]: 6.859 ± 0.34 pg/mL | G-CSF cardiac protein level [1]: 1.912 ± 0.08 pg/mL | GM-CSF cardiac protein level [1]: 38.18 ± 1.37 pg/mL | IL-1a cardiac protein level [1]: 7.61 ± 0.56 pg/mL | IL-1b cardiac protein level [1]: 69.83 ± 3.75 pg/mL | IL-4 cardiac protein level [1]: 2.676 ± 0.06 pg/mL | IL-5 cardiac protein level [1]: 3.96 ± 0.14 pg/mL | IL-6 cardiac protein level [1]: 2.766 ± 0.15 pg/mL | IL-9 cardiac protein level [1]: 557.8 ± 31.03 pg/mL | IL-10 cardiac protein level [1]: 40.13 ± 1.36 pg/mL | IL-12 p40 cardiac protein level [1]: 4.887 ± 0.28 pg/mL | IL-12 p70 cardiac protein level [1]: 23.49 ± 1.83 pg/mL | IL-13 cardiac protein level [1]: 90.19 ± 2.93 pg/mL | IL-17A cardiac protein level [1]: 8.068 ± 0.29 pg/mL | L-2 cardiac protein level [1]: 5.849 ± 0.78 pg/mL | M-CSF (IL-3) cardiac protein level [1]: 1.562 ± 0.11 pg/mL | TNF-a cardiac protein level [1]: 219.7 ± 9.76 pg/mL | CCL-3 (MIP-1a) Ratio of HFI to Vehicle [2]: 0.88 | CCL-4 (MIP-1b) Ratio of HFI to Vehicle [2]: 0.78 | CCL-5 (RANTES) Ratio of HFI to Vehicle [2]: 1.03 | CCL-11 (Eotaxin) Ratio of HFI to Vehicle [2]: 1.29 | CXCL-1 (KC) Ratio of HFI to Vehicle [2]: 1.18 | G-CSF Ratio of HFI to Vehicle [2]: 1.02 | GM-CSF Ratio of HFI to Vehicle [2]: 0.99 | IL-1a Ratio of HFI to Vehicle [2]: 1.03 | IL-1b Ratio of HFI to Vehicle [2]: 1.16 | IL-4 Ratio of HFI to Vehicle [2]: 1.61** | IL-5 Ratio of HFI to Vehicle [2]: 0.98 | IL-6 Ratio of HFI to Vehicle [2]: 0.98 | IL-9 Ratio of HFI to Vehicle [2]: 1.19* | IL-10 Ratio of HFI to Vehicle [2]: 1.09 | IL-12 p40 Ratio of HFI to Vehicle [2]: 1.31 | IL-12 p70 Ratio of HFI to Vehicle [2]: 0.88 | IL-13 Ratio of HFI to Vehicle [2]: 0.96 | IL-17A Ratio of HFI to Vehicle [2]: 0.95 | L-2 Ratio of HFI to Vehicle [2]: 1.12 | M-CSF (IL-3) Ratio of HFI to Vehicle [2]: 1.02 | TNF-a Ratio of HFI to Vehicle [2]: 0.92
